Legend:
[1] = tested on: commercial inbred sorghum lines; assay: Soil emergence of sorghum inbreds after ABA seed treatment; format: in vivo; details: for Emergence / Median time to emergence / Quartile range: soil 20/30° C.
Experimental: Seed of four commercial inbred sorghum lines were obtained from a genetics supplier. These inbreds are representative of many male parents used in hybrid sorghum seed production. ABA in the form of the free acid was applied at rates of 0, 10, 25, 50 and 100 g/cwt. Application was performed as described under Example 2 above, except the Maxim XL (Syngenta) was applied at 0.334 oz/cwt, Allegiance FL (Bayer), was applied at 0.75 oz/cwt, and Thiram 42-S (Bayer) was applied at 3.5 oz/cwt, using a slurry rate of 25 oz/cwt. The seed was planted in soil in plastic boxes as described under Example 2, except at a depth of 2 cm., and incubated at 20/30° C. (AOSA Rules for Testing Seeds, 2005). Emergence was counted every 1-3 days and the data reduced as described under Example 2.

[2] = tested on: corn inbred lines B91 and B95; assay: Field emergence and anthesis of inbred corn seed treated with ABA; format: in vivo
Experimental: Seed of inbred lines B91 and B95 was obtained from Iowa State University. These inbreds are from the BSCB1 heterotic group, and are representative of many male parents used in hybrid corn seed production. ABA in the form of the ammonium salt was applied at rates of 0, 25, 50 and 100 g/cwt (as free acid). Application was performed as described under Example 2 above, except the CF-Clear and Color Coat Red (Becker Underwood) were applied at 0.5 oz/cwt, and Maxim XL (Syngenta) was applied at 0.334 oz/cwt, using a slurry rate of 15 oz/cwt. The seed samples were mechanically planted in small plots of one five hundredth acre each at Woodstock, Ill., Stoughton, Wis. and Winnebago, Ill. Three plots of each treatment were planted at each location. Standard cultural practices for corn production were used. The plots were examined daily, and seedling emergence counted in each plot every day or two during the month after planting. Data were analyzed as described under Example 2 above.

[3] = sorghum inbred 43, ABA 10 g/cwt
[4] = sorghum inbred 43, ABA 25 g/cwt
[5] = sorghum inbred 43, ABA 50 g/cwt
[6] = sorghum inbred 43, ABA 100 g/cwt
[7] = sorghum inbred 44, ABA 10 g/cwt
[8] = sorghum inbred 44, ABA 25 g/cwt
[9] = sorghum inbred 44, ABA 50 g/cwt
[10] = sorghum inbred 44, ABA 100 g/cwt
[11] = sorghum inbred 45, ABA 10 g/cwt
[12] = sorghum inbred 45, ABA 25 g/cwt
[13] = sorghum inbred 45, ABA 50 g/cwt
[14] = sorghum inbred 45, ABA 100 g/cwt
[15] = sorghum inbred 46, ABA 10 g/cwt
[16] = sorghum inbred 46, ABA 25 g/cwt
[17] = sorghum inbred 46, ABA 50 g/cwt
[18] = sorghum inbred 46, ABA 100 g/cwt
[19] = Stoughton, inbred B91, ABA (ammonium salt) 25 g/cwt as free acid
[20] = Stoughton, inbred B91, ABA (ammonium salt) 50 g/cwt as free acid
[21] = Stoughton, inbred B91, ABA (ammonium salt) 100 g/cwt as free acid
[22] = Stoughton, inbred B95, ABA (ammonium salt) 25 g/cwt as free acid
[23] = Stoughton, inbred B95, ABA (ammonium salt) 50 g/cwt as free acid
[24] = Stoughton, inbred B95, ABA (ammonium salt) 100 g/cwt as free acid
[25] = Winnebago, inbred B91, ABA (ammonium salt) 25 g/cwt as free acid
[26] = Winnebago, inbred B91, ABA (ammonium salt) 50 g/cwt as free acid
[27] = Winnebago, inbred B91, ABA (ammonium salt) 100 g/cwt as free acid
[28] = Winnebago, inbred B95, ABA (ammonium salt) 25 g/cwt as free acid
[29] = Winnebago, inbred B95, ABA (ammonium salt) 50 g/cwt as free acid
[30] = Winnebago, inbred B95, ABA (ammonium salt) 100 g/cwt as free acid
[31] = Woodstock, inbred B91, ABA (ammonium salt) 25 g/cwt as free acid
[32] = Woodstock, inbred B91, ABA (ammonium salt) 50 g/cwt as free acid
[33] = Woodstock, inbred B91, ABA (ammonium salt) 100 g/cwt as free acid
[34] = Woodstock, inbred B95, ABA (ammonium salt) 25 g/cwt as free acid
[35] = Woodstock, inbred B95, ABA (ammonium salt) 50 g/cwt as free acid
[36] = Woodstock, inbred B95, ABA (ammonium salt) 100 g/cwt as free acid

CC1=CC(=O)CC(C)(C)[C@@]1(O)/C=C/C(C)=C\C(=O)O [ABA, S-(+)-abscisic acid]
effect on emergence of sorghum inbreds ([1]; ABA 10-100 g/cwt): progressively and significantly delayed emergence
Emergence [1, 3]: 94.0%
Median time to emergence [1, 3]: 5.1 days
Quartile range [1, 3]: 1.5 days
Emergence [1, 4]: 94.2%
Median time to emergence [1, 4]: 6.3 days
Quartile range [1, 4]: 2.2 days
Emergence [1, 5]: 87.2%
Median time to emergence [1, 5]: 8.6 days
Quartile range [1, 5]: 3.7 days
Emergence [1, 6]: 87.9%
Median time to emergence [1, 6]: 11.3 days
Quartile range [1, 6]: 4.8 days
Emergence [1, 7]: 79.0%
Median time to emergence [1, 7]: 5.7 days
Quartile range [1, 7]: 2.6 days
Emergence [1, 8]: 73.2%
Median time to emergence [1, 8]: 8.4 days
Quartile range [1, 8]: 3.2 days
Emergence [1, 9]: 71.3%
Median time to emergence [1, 9]: 10.7 days
Quartile range [1, 9]: 4.6 days
Emergence [1, 10]: 49.0%
Median time to emergence [1, 10]: 14.4 days
Quartile range [1, 10]: 4.7 days
Emergence [1, 11]: 81.3%
Median time to emergence [1, 11]: 5.4 days
Quartile range [1, 11]: 1.5 days
Emergence [1, 12]: 77.1%
Median time to emergence [1, 12]: 7.3 days
Quartile range [1, 12]: 3.1 days
Emergence [1, 13]: 54.1%
Median time to emergence [1, 13]: 10.6 days
Quartile range [1, 13]: 3.5 days
Emergence [1, 14]: 25.0%
Median time to emergence [1, 14]: 14.9 days
Quartile range [1, 14]: 6.7 days
Emergence [1, 15]: 89.2%
Median time to emergence [1, 15]: 5.7 days
Quartile range [1, 15]: 2.6 days
Emergence [1, 16]: 86.1%
Median time to emergence [1, 16]: 7.0 days
Quartile range [1, 16]: 3.0 days
Emergence [1, 17]: 86.2%
Median time to emergence [1, 17]: 8.8 days
Quartile range [1, 17]: 3.9 days
Emergence [1, 18]: 75.1%
Median time to emergence [1, 18]: 11.4 days
Quartile range [1, 18]: 5.0 days
effect on anthesis ([2]; Stoughton and Winnebago, ABA 25-100 g/cwt): progressively delayed anthesis
Final emergence [2, 19]: 96.2%
Median time to anthesis [2, 19]: 79.2 days
Median time to emergence [2, 19]: 11.9 days
Final emergence [2, 20]: 95.0%
Median time to anthesis [2, 20]: 80.1 days
Median time to emergence [2, 20]: 12.6 days
Final emergence [2, 21]: 94.3%
Median time to anthesis [2, 21]: 79.8 days
Median time to emergence [2, 21]: 14.1 days
Final emergence [2, 22]: 98.1%
Median time to anthesis [2, 22]: 81.8 days
Median time to emergence [2, 22]: 12.5 days
Final emergence [2, 23]: 98.1%
Median time to anthesis [2, 23]: 82.4 days
Median time to emergence [2, 23]: 14.1 days
Final emergence [2, 24]: 99.0%
Median time to anthesis [2, 24]: 81.3 days
Median time to emergence [2, 24]: 14.3 days
Final emergence [2, 25]: 98.5%
Median time to anthesis [2, 25]: 74.4 days
Median time to emergence [2, 25]: 8.8 days
Final emergence [2, 26]: 96.4%
Median time to anthesis [2, 26]: 75.1 days
Median time to emergence [2, 26]: 9.7 days
Final emergence [2, 27]: 94.4%
Median time to anthesis [2, 27]: 76.4 days
Median time to emergence [2, 27]: 11.5 days
Final emergence [2, 28]: 94.8%
Median time to anthesis [2, 28]: 79.8 days
Median time to emergence [2, 28]: 10.3 days
Final emergence [2, 29]: 95.0%
Median time to anthesis [2, 29]: 79.5 days
Median time to emergence [2, 29]: 11.3 days
Final emergence [2, 30]: 89.8%
Median time to anthesis [2, 30]: 80.8 days
Median time to emergence [2, 30]: 12.7 days
Final emergence [2, 31]: 99.0%
Median time to emergence [2, 31]: 11.4 days
Final emergence [2, 32]: 94.5%
Median time to emergence [2, 32]: 13.7 days
Final emergence [2, 33]: 92.0%
Median time to emergence [2, 33]: 14.3 days
Final emergence [2, 34]: 94.8%
Median time to emergence [2, 34]: 13.8 days
Final emergence [2, 35]: 96.8%
Median time to emergence [2, 35]: 15.3 days
Final emergence [2, 36]: 89.6%
Median time to emergence [2, 36]: 18.9 days
effect on final stand ([2]; any of the locations): did not significantly reduce final stand
effect on emergence from the soil ([2]; every location, ABA 25-100 g/cwt): progressive and significant delay in emergence

Reference: US20080318792A1, “Extension of pollination period” (priority 2007, published 2008)
